Data set [1] addresses Polymerase acidic protein /RNA-directed RNA polymerase catalytic subunit (Influenza A virus (strain A/Wilson-Smith/1933 H1N1), UniProt P03430+P15659). Put plainly: Inhibition of Influenza A virus A/WSN/1933(H1N1) HA-tagged PA/PB1 interaction in HEK293T cells assessed as inhibition of viral growth by competitive ELISA. The format is cell-based, HEK-293T. A general note: An ELISA detects its analyte on a solid surface through an enzyme-linked reagent.

Data set [2] in a line: Cytotoxicity against MDCK cells measured after 24 to 120 hrs by MTT assay. The format is toxicity, cell-based, Canis lupus familiaris. The following applies: dog. On the technique in general: Formazan colour is commonly taken as a measure of viable cells.
Data set [3] concerns Influenza A virus (A/Puerto Rico/8/1934(H1N1)). As to the kind of experiment: (§1) Inhibition of Influenza A virus A/PR/8/34(H1N1) 6His-tagged PA (239 to 716 residues)/GST-tagged PB1 (1 to 15 residues) fused with HIV-Tat interaction by ELISA.
Data set [4] can be described thus: as §1. The arrangement: species or system Influenza A virus (A/Puerto Rico/8/1934(H1N1)).
Data set [5] is described as follows: (§2) Inhibition of Influenza A virus A/PR/8/34 RNA-dependent-RNA polymerase transfected in HEK293T cells assessed as reduction in viral growth after 24 hrs by minireplicon assay. It counts as cell-based, Influenza A virus (A/Puerto Rico/8/1934(H1N1)). The following applies: hek-293t. (In general: A replicon is a self-replicating genome or part of one, used to study replication in cells.)

The next data set relates to HEK-293T. Described as §2. The format is cell-based. Conditions: Influenza A virus (A/Puerto Rico/8/1934(H1N1)).
Data set [6] in a line: Antiviral activity against Influenza A virus A/PR/8/34 (H1N1) infected in MDCK cells assessed as reduction in plaque formation after 2 days by plaque reduction assay. The format is functional, cell-based, Influenza A virus (A/Puerto Rico/8/1934(H1N1)). The following applies: 48 h.
For another data set, the system named is Influenza A virus. Put plainly: Antiviral activity at Influenza A virus infected in MDCK cells by plaque reduction assay. It counts as functional, cell-based.
A further data set deals with Influenza B virus. Put plainly: Antiviral activity at Influenza B virus infected in MDCK cells by plaque reduction assay. The format is functional, cell-based.
Data set [7] addresses Polymerase acidic protein (Influenza A virus (A/Puerto Rico/8/1934(H1N1)), UniProt P03433). As to the kind of experiment: Binding affinity to PA cavity of recombinant Influenza A virus A/PR/8/34(H1N1) PA (239 to 716 residues) measured after 2 mins by SPR analysis.
The nature of data set [8]: Cytotoxicity against MDCK cells by MTT assay. The format is toxicity, cell-based, Canis lupus familiaris. The following applies: dog.
The nature of data set [9]: Inhibition of Influenza B virus HA-tagged PA/PB1 interaction in HEK293T cells assessed as inhibition of viral growth by competitive ELISA. It counts as cell-based. The following applies: hek-293t.
A short description of data set [10]: Inhibition of Influenza A virus A/PR/8/34(H1N1) 6His-tagged PA (239 to 716 residues)/GST-tagged PB1 (1 to 15 residues) interaction. Details: species or system Influenza A virus (A/Puerto Rico/8/1934(H1N1)).
A short description of data set [11]: Inhibition of Influenza A virus A/WSN/1933(H1N1) PA/PB1 interaction transfected in HEK293T cells assessed as inhibition of viral growth measured after 24 hrs by minireplicon assay. It counts as cell-based. The following applies: hek-293t.
Data set [12] can be described thus: Inhibition of Influenza A virus A/PR/8/34(H1N1) RNA-dependent-RNA polymerase transfected in MDCK cells assessed as reduction in viral growth after 24 hrs by minireplicon assay. It counts as cell-based, Influenza A virus (A/Puerto Rico/8/1934(H1N1)).
Data set [13] is described as follows: Inhibition of Influenza B virus B/Lee/40 RNA-dependent-RNA polymerase transfected in MDCK cells assessed as reduction in viral growth after 24 hrs by minireplicon assay. The format is cell-based, Influenza B virus (B/Lee/1940).

A value given as a limit tells only on which side of the number the result lay.

What is called IC50 is the concentration that inhibits the measured activity by half. As for `CC[C@H](C)[C@H](NC(=O)[C@@H]1CCCN1C(=O)[C@@H](NC(=O)[C@H](CCCCN)NC(=O)[C@H](CC(C)C)NC(=O)[C@H](Cc1ccccc1)NC(=O)[C@H](CC(C)C)NC(=O)[C@H](CC(C)C)NC(=O)[C@H](Cc1ccccc1)NC(=O)[C@@H]1CCCN1C(=O)[C@H](CC(N)=O)NC(=O)[C@@H](NC(=O)[C@H](CC(=O)O)NC(=O)[C@@H](N)CCSC)C(C)C)C(C)C)C(=O)N[C@@H](CCC(N)=O)C(=O)O`, in [1], the IC50 was determined as 0.0217 µM.
As a reminder, the CC50 is the concentration at which the toxic effect on the cells reaches its halfway point. A low value points to harm at low concentration. In general, EC50 refers to the concentration needed to bring the measured effect to its halfway point. Consider `COc1ccc(C(=O)Nc2nc3n(n2)C(c2ccccc2)C=C(C)N3)cc1` (centres undefined), for which, in data set [2], the CC50 was > 250 µM. Moreover, the inhibition entry (in [3]; in the data set with HEK-293T) was “Dose-dependent effect” each time. Further, the results for the IC50 in data set [4] and in [5] were 171 µM and > 100 µM, respectively. In addition, the EC50 in data set [6] was > 100 µM.
In the case of `CC(C)C[C@H](NC(=O)[C@H](Cc1ccccc1)NC(=O)[C@H](CC(C)C)NC(=O)[C@H](CC(C)C)NC(=O)[C@@H](NC(=O)[C@@H]1CCCN1)[C@@H](C)O)C(=O)N[C@@H](CCCCN)C(=O)O`, in [1], the IC50 is > 10 µM.
As for `COC(=O)C1=C(N)N(c2cccc(Cl)c2C)C2=C(C(=O)CCC2)C1c1ccc2c(c1)OCO2` (centres undefined), the CC50 in data set [2] is > 1000 µM. In addition, the inhibition entry (in [3]; in the data set with HEK-293T) was “Dose-dependent effect” throughout. In addition, the half-inhibitory concentration (IC50) in data set [4] amounted to 30.4 µM; in [5], 18 µM. In addition, the EC50 stood at 18.6 µM in [6], 12 µM with Influenza A virus and 12 µM with Influenza B virus.
As a reminder, the Kd is the constant that tells how readily two partners part at equilibrium. Regarding `CC(=O)O[C@H]1CC[C@H]2[C@@H]3CCC4=CC(=O)CCC4=C3C=C[C@]12C` [TRENBOLONE ACETATE], the Kd in [7] was 90.7 µM. In [6], the EC50 came to 51 µM.
Regarding `CSCC[C@H](N)C(=O)N[C@@H](CC(=O)O)C(=O)N[C@H](C(=O)N[C@@H](CC(N)=O)C(=O)N1CCC[C@H]1C(=O)N[C@@H](Cc1ccccc1)C(=O)N[C@@H](CC(C)C)C(=O)N[C@@H](CC(C)C)C(=O)N[C@@H](Cc1ccccc1)C(=O)N[C@@H](CC(C)C)C(=O)N[C@@H](CCCCN)C(=O)N[C@H](C(=O)N1CCC[C@H]1C(=O)N[C@@H](C)C(=O)N[C@@H](Cc1ccccc1)C(=O)O)C(C)C)C(C)C`, the IC50 in [1] was determined as 0.0139 µM.
As to `COc1ccc(CC2(CCC(=O)NC(C)Cn3ccc4ccccc43)CCC(=O)N2)cc1` (centres undefined), in data set [2], the CC50 was > 250 µM. Moreover, the inhibition entry (in data set [3]; with HEK-293T) was “Dose-dependent effect” throughout. For the same compound, the figures for the IC50 in data set [4] and in [5] were 200 µM and > 100 µM, respectively. For the same compound, the EC50 in data set [6] was > 100 µM.
For the compound `NC(=O)c1c(NC(=O)c2cnn3c(C(F)F)cc(-c4ccccc4)nc23)sc2c1CCC2`, in [2], the CC50 was > 1000 µM. Further, the inhibition entry (in [3]; in the data set with HEK-293T) was “Dose-dependent effect” throughout. The figures for the IC50 in data set [4] and in data set [5] were 25.4 µM and 31 µM, respectively. Moreover, the EC50 in [6] was 75 µM.
In data set [4], `O=[N+]([O-])c1ccc(Sc2cccc(-n3ccnc3)c2)c2nonc12` yielded an IC50 of 15 µM. The EC50 in data set [6] was found to be 10 µM. Further, the CC50 in data set [8] amounted to 20 µM.
As to `CCc1oc2ccccc2c1C(=O)c1cc(Br)c(O)c(Br)c1` [BENZBROMARONE], the Kd in [7] worked out at 48.2 µM. Besides, in [6], the EC50 is 39 µM.
Consider `O=[N+]([O-])c1ccc(Oc2ccc(-n3cc(CO)nn3)cc2)c2nonc12`, for which, in data set [4], the IC50 worked out at 35 µM. Further, the half-maximal effective concentration (EC50) in data set [6] amounted to 1 µM. The same compound displayed a CC50 in data set [8] of 40 µM.
As for `N#CC(c1ccc(Cl)cc1)c1c(Cl)cc(-n2ncc(=O)[nH]c2=O)cc1Cl` (centres undefined) [DICLAZURIL], in data set [7], the Kd was 211 µM. In addition, the EC50 in [6] was found to be 31 µM.
On to `CSCC[C@H](N)C(=O)N[C@@H](CC(=O)O)C(=O)N[C@H](C(=O)N[C@@H](CC(N)=O)C(=O)N1CCC[C@H]1C(=O)N[C@@H](Cc1ccccc1)C(=O)N[C@@H](CC(C)C)C(=O)N[C@@H](CC(C)C)C(=O)N[C@@H](Cc1ccccc1)C(=O)N[C@@H](CC(C)C)C(=O)N[C@@H](CCCCN)C(=O)N[C@H](C(=O)N[C@@H](CCCCN)C(=O)N[C@@H](C)C(=O)N[C@@H](CCC(N)=O)C(=O)O)C(C)C)C(C)C`, for which the IC50 in data set [1] was determined as 0.0166 µM.
For the compound H-MNINPYFLFIDVPIQ-OH, the IC50 was 0.045 µM in data set [9] and > 3 µM in data set [1].
Consider `Nc1ccc(O)c2c1C(=O)c1c(N)ccc(O)c1C2=O`, for which the IC50 in [10] is 20 µM; in data set [11], 16 µM. In addition, in data set [2], the CC50 was > 250 µM. Also, the values for the EC50 (in [12]; in data set [13]; in the data set with Influenza A virus) were 14 µM, 8.3 µM and 13 µM, respectively.
H-MDVNPYLLFLKVPAQ-OH: the values for the IC50 in [9] and in data set [1] were 0.107 µM and 0.0216 µM, respectively.
On to `CSCC[C@H](N)C(=O)N[C@@H](CC(=O)O)C(=O)N[C@@H](Cc1ccc(O)cc1)C(=O)N[C@@H](CC(N)=O)C(=O)N1CCC[C@H]1C(=O)N[C@@H](Cc1ccccc1)C(=O)N[C@@H](CC(C)C)C(=O)N[C@@H](CC(C)C)C(=O)N[C@@H](Cc1ccccc1)C(=O)N[C@@H](CC(C)C)C(=O)N[C@@H](CCCCN)C(=O)N[C@H](C(=O)N1CCC[C@H]1C(=O)N[C@@H](C)C(=O)N[C@@H](CCC(N)=O)C(=O)O)C(C)C`, for which the IC50 in data set [1] turned out to be 0.0063 µM.
On to `CSCC[C@H](N)C(=O)N[C@@H](CC(=O)O)C(=O)N[C@H](C(=O)N[C@@H](CC(N)=O)C(=O)N1CCC[C@H]1C(=O)N[C@H](C(=O)N[C@@H](CC(C)C)C(=O)N[C@@H](CC(C)C)C(=O)N[C@@H](Cc1ccccc1)C(=O)N[C@@H](CC(C)C)C(=O)N[C@@H](CCCCN)C(=O)N[C@H](C(=O)N1CCC[C@H]1C(=O)N[C@@H](C)C(=O)N[C@@H](CCC(N)=O)C(=O)O)C(C)C)[C@@H](C)O)C(C)C`, for which the IC50 in data set [9] was > 3 µM.

Values taken from ChEMBL document CHEMBL3853272, “Polymerase Acidic Protein-Basic Protein 1 (PA-PB1) Protein-Protein Interaction as a Target for Next-Generation Anti-influenza Therapeutics” (J Med Chem, 2016).
